Counter-ions that a name gives are not always drawn. Like-named read-outs stand apart in the source and are kept apart here.
Columns and labels:
[1] = test system: NCI-H292 lung cancer cells; assay: FDA drug screening, complete media vs cholesterol-free media with simvastatin (TABLE 2); format: cell-based, human
[2] = test system: NCI-H292 lung cancer cells; assay: FDA drug screening, complete media vs cholesterol-free media without statin (TABLE 1); format: cell-based, human
[3] = NCI-H292 cells, FDA library drug in cholesterol-free media with simvastatin 0.04 μM
[4] = NCI-H292 cells, FDA library drug in complete media
[5] = complete media vs cholesterol-free media + simvastatin (0.04 μM), >0 enhanced anti-cancer activity, about 0 neutral, <0 antagonist
[6] = NCI-H292 cells, cholesterol-free media with simvastatin 0.04 μM, FDA drug library screen (TABLE 2)
[7] = NCI-H292 cells, complete media, FDA drug library screen (TABLE 2)
[8] = complete media minus cholesterol-free media + simvastatin (0.04 μM), >0 enhanced anti-cancer activity, about 0 neutral, <0 antagonist
[9] = NCI-H292 cells, cholesterol-free media without statin
[10] = complete vs cholesterol-free media, greater than 0 enhanced anti-cancer activity, about 0 neutral, below 0 antagonists
[11] = Complete minus Cholesterol-free, greater than 0 enhanced anti-cancer activity, about 0 neutral, below 0 antagonists
[12] = NCI-H292 cells in cholesterol-free media without statin
[13] = NCI-H292 cells in complete media
[14] = NCI-H292 cells, FDA drug library screen, cholesterol-free media with simvastatin 0.04 μM
[15] = NCI-H292 cells, FDA drug library screen, complete media
[16] = complete media minus cholesterol-free media + simvastatin, >0 enhanced anti-cancer activity, about 0 neutral, <0 antagonist
[17] = complete vs cholesterol-free media, […]

## CCc1nn(CCCN2CCN(c3cccc(Cl)c3)CC2)c(=O)n1CCOc1ccccc1 [Nefazodone (hydrochloride)]
[1]; [3]
  Cholesterol-free media + simvastatin (0.04 μM): 1.025
[1]; [4]
  Complete Media: 0.2752
[1]; [5]
  Difference: −0.75
[2]; NCI-H292 cells, cholesterol-free media without statin, FDA drug library screen
  Cholesterol-free: 0.8256
[2]; NCI-H292 cells, complete media, FDA drug library screen
  Complete: 1.655
[2]; complete vs cholesterol-free media, >0 enhanced anti-cancer activity, about 0 neutral, <0 antagonist
  Difference: 0.83

## CN1CCOC(c2ccccc2)c2ccccc2C1 (centres unmarked) [Nefopam (hydrochloride)]
[1]; [6]
  Cholesterol-free media + simvastatin (0.04 μM): 1.077
[1]; [7]
  Complete Media: 1.041
[1]; [8]
  Difference: −0.04
[2]; [9]
  Cholesterol-free: 1.379
[2]; NCI-H292 cells, complete media
  Complete: 0.9673
[2]; [10]
  Difference: −0.41

## COc1nc(N)nc2c1ncn2[C@@H]1O[C@H](CO)[C@@H](O)[C@@H]1O [Nelarabine]
[1]; [6]
  Cholesterol-free media + simvastatin (0.04 μM): 0.8366
[1]; [7]
  Complete Media: 0.8526
[1]; [8]
  Difference: 0.02
[2]; [11]
  Difference: −0.59
[2]; [12]
  Cholesterol-free: 1.291
[2]; [13]
  Complete: 0.7049

## Cc1c(O)cccc1C(=O)N[C@@H](CSc1ccccc1)[C@H](O)CN1C[C@H]2CCCC[C@H]2C[C@H]1C(=O)NC(C)(C)C [Nelfinavir]
[1]; [3]
  Cholesterol-free media + simvastatin (0.04 μM): 1.243
[1]; [4]
  Complete Media: 0.8828
[1]; [5]
  Difference: −0.36
[2]; Complete minus Cholesterol-free, >0 enhanced anti-cancer activity, about 0 neutral, <0 antagonist
  Difference: −0.25
[2]; [9]
  Cholesterol-free: 1.095
[2]; NCI-H292 cells, complete media
  Complete: 0.8463

## NC[C@@H]1O[C@H](O[C@H]2[C@@H](O)[C@H](O[C@@H]3[C@@H](O)[C@H](N)C[C@H](N)[C@H]3O[C@H]3O[C@H](CN)[C@@H](O)[C@H](O)[C@H]3N)O[C@@H]2CO)[C@H](N)[C@@H](O)[C@@H]1O.O=S(=O)(O)O [Neomycin (sulfate)]
[1]; [14]
  Cholesterol-free media + simvastatin (0.04 μM): 0.8549
[1]; [15]
  Complete Media: 1.021
[1]; [16]
  Difference: 0.17
[2]; Complete minus Cholesterol-free, greater than 0 enhanced anti-cancer activity, about 0 neutral, below 0 antagonist
  Difference: −0.17
[2]; NCI-H292 cells, FDA drug library screen, cholesterol-free media without statin
  Cholesterol-free: 1.592
[2]; [15]
  Complete: 1.421

## CN(C)C(=O)Oc1cccc([N+](C)(C)C)c1.[Br-] [Neostigmine (Bromide)]
[1]
  Cholesterol-free media + simvastatin (0.04 μM): 0.9188
  Complete Media: 1.066
  Difference: 0.15
[2]
  Cholesterol-free: 1.008
  Complete: 0.8252
  Difference: −0.18

## CN(C)C(=O)Oc1cccc([N+](C)(C)C)c1.COS(=O)(=O)[O-] [Neostigmine (methyl sulfate)]
[1]; [14]
  Cholesterol-free media + simvastatin (0.04 μM): 0.8206
[1]; [15]
  Complete Media: 1.308
[1]; complete media minus cholesterol-free media + simvastatin, […]
  Difference: 0.49
[2]; [9]
  Cholesterol-free: 1.718
[2]; NCI-H292 cells, complete media
  Complete: 1.281
[2]; [17]
  Difference: −0.44

## NC(=O)Cc1cccc(C(=O)c2ccccc2)c1N [Nepafenac]
[1]; [6]
  Cholesterol-free media + simvastatin (0.04 μM): 1.737
[1]; [7]
  Complete Media: 1.699
[1]; [8]
  Difference: −0.04
[2]; [11]
  Difference: −0.71
[2]; [12]
  Cholesterol-free: 1.612
[2]; [13]
  Complete: 0.8984

## CCOc1cc2ncc(C#N)c(Nc3ccc(OCc4ccccn4)c(Cl)c3)c2cc1NC(=O)/C=C/CN(C)C [Neratinib]
[1]
  Cholesterol-free media + simvastatin (0.04 μM): 0.3387
  Complete Media: 0.3007
  Difference: −0.04
[2]
  Cholesterol-free: 0.06707
  Complete: 0.1268
  Difference: 0.06

## C=C1C[C@H]2[C@@H]3CCC4=CC(=O)CC[C@@H]4[C@H]3CC[C@]2(C)[C@@]1(OC(C)=O)C(C)=O [Nestoron]
[1]; [6]
  Cholesterol-free media + simvastatin (0.04 μM): 0.9628
[1]; [7]
  Complete Media: 0.9132
[1]; complete media minus cholesterol-free media + simvastatin (0.04 μM), […]
  Difference: −0.05
[2]; [9]
  Cholesterol-free: 1.481
[2]; NCI-H292 cells, complete media
  Complete: 1.095
[2]; [17]
  Difference: −0.39

## CCCCCOc1ccccc1/C(=C\SC)n1ccnc1 [Neticonazole (hydrochloride)]
[1]; [15]
  Complete Media: 0.9839
[1]; [16]
  Difference: 0.45
[2]; [9]
  Cholesterol-free: 1.192
[2]; NCI-H292 cells, complete media
  Complete: 0.8359
[2]; [10]
  Difference: −0.36

From patent publication US20250144067A1, “PERSONALIZED STARVATION THERAPY FOR CANCER” (Faeth Therapeutics, Inc., priority 2021, published 2025)
